# Assay results: patent publication US5629343A, “N-(mercaptoacyl) peptidyl derivatives as antidegenerative agents” (Merck & Co., Inc., priority 1995, dated 1997)
# Where two headings read alike, the source gives them in different places.
# Tests used:
# [1] = biological target: T1, human rheumatoid synovial collagenase (Homo sapiens, UniProt P03956); conditions: cited from earlier work
# T1 sequence (P03956 100-469): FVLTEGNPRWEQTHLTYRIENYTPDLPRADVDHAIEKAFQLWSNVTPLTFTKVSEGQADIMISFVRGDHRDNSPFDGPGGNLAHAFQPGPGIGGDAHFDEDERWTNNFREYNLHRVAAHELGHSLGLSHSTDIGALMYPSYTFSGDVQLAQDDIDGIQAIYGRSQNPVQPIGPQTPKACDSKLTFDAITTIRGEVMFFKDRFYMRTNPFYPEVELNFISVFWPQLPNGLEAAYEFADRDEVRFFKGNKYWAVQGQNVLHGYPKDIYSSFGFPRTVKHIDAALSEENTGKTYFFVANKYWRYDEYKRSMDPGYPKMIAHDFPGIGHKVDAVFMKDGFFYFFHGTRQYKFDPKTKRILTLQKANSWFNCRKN
# [2] = biological target: rabbit bone proteoglycanase (Oryctolagus cuniculus, UniProt P28863); conditions: cited from earlier work
# stromelysin = stromelysin (Homo sapiens, UniProt P08254); assay: Inhibition of stromelysin: hydrolysis of substance P, semicontinuous HPLC-based assay; type: biochemical; conditions: for IC50: substrate substance P
# [3] = higher Rf isomer (diastereomer), read-out: IC50 ± S.E. Higher Rf isomer
# [4] = lower Rf isomer (diastereomer), read-out: IC50 ± S.E. Lower Rf isomer
# Sequence of stromelysin (P08254 100-477): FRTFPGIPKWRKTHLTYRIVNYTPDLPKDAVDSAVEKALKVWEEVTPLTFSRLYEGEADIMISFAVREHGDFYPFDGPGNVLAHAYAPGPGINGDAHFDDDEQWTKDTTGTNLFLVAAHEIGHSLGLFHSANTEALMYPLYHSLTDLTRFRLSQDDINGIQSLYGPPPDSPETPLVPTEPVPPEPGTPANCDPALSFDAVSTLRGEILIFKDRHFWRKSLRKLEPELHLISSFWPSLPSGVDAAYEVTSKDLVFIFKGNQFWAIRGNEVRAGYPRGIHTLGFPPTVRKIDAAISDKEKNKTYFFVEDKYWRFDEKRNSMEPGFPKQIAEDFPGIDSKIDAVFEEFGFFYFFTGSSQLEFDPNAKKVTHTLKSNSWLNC
# Sequence of rabbit bone proteoglycanase (P28863 101-478): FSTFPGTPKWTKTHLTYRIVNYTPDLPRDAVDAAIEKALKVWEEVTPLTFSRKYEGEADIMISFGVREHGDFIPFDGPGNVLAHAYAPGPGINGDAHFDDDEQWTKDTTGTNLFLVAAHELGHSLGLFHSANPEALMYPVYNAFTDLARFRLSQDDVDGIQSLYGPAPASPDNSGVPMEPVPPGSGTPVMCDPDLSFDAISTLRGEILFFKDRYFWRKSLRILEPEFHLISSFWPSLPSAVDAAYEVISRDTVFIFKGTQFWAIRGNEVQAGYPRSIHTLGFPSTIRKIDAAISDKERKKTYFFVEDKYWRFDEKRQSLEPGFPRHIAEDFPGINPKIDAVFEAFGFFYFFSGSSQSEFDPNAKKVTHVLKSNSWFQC
IC50 (stromelysin; [3]) [µM],IC50 (stromelysin; [4]) [µM],SMILES,also measured
,,"CNC(=O)[C@H](Cc1ccc(OC)cc1)NC(=O)[C@H](CC(C)C)NC(CCNC(=O)OCc1ccccc1)C(=O)O (stereo partly drawn) [N-[3-(benzyloxycarbonyl)amino-1-carboxy-n-propyl]-L-leucyl-O-methyl-L-tyrosine, N-methylamide]",IC50 [1]: 0.8 µM; IC50 [2]: 0.5 µM
1.6 ± 0.5,0.49 ± 0.1,"CC(C)C[C@H](NC(=O)C(CS)CCc1ccccc1)C(=O)Nc1ccccc1 (stereo partly drawn) [Compound 1b, N-(2-Thiomethyl-4-phenylbutanoyl)-(L)-leucine, N-phenylamide]",
3.3 ± 0.4,0.96 ± 0.1,"CC(C)C[C@H](NC(=O)C(CS)CCc1ccccc1)C(N)=O (stereo partly drawn) [Compound 1a, N-(2-Thiomethyl-4-phenylbutanoyl)-(L)-leucinamide]",
,,"O=C(N[C@@H](Cc1ccccc1)C(=O)NCc1ccccc1)C(CS)CCc1ccccc1 (stereo partly drawn) [Compound 1g, N-(2-Thiomethyl-4-phenylbutanoyl)-(L)-phenylalanine, N-benzylamide]","% inh. Higher Rf isomer (stromelysin; higher Rf isomer, @ 1.4 μM): 63 % inh.; % inh. Lower Rf isomer (stromelysin; lower Rf isomer, @ 3.3 μM): 98 % inh."
1.1 ± 0.3,2.2 ± 0.8,"O=C(N[C@@H](Cc1ccccc1)C(=O)Nc1ccccc1)C(CS)CCc1ccccc1 (stereo partly drawn) [Compound 1f, N-(2-Thiomethyl-4-phenylbutanoyl)-(L)-phenylalanine, N-phenylamide]",
3.1 ± 0.5,1.9 ± 0.6,"NC(=O)[C@H](Cc1ccccc1)NC(=O)C(CS)CCc1ccccc1 (stereo partly drawn) [Compound 1e, N-(2-Thiomethyl-4-phenylbutanoyl)-(L)-phenylalaninamide]",
4.1 ± 0.35,,"O=C(O)CCNC(=O)[C@H](Cc1ccccc1)NC(=O)C(CS)CCc1ccccc1 (stereo partly drawn) [Compound 1h, N-(2-Thiomethyl-4-phenylbutanoyl)-(L)-phenylalanine-β-alanine]",
7.3 ± 3.3,2.5 ± 1.2,"CC(C)C[C@H](NC(=O)C(CS)CCc1ccccc1)C(=O)NCc1ccccc1 (stereo partly drawn) [Compound 1c, N-(2-Thiomethyl-4-phenylbutanoyl)-(L)-leucine, N-benzylamide]",
